{
  "source": "patent US9642389B2",
  "about": "(MALAYSIAN PALM OIL BOARD, priority 2009, dated 2017)",
  "origin": "cited, not measured here",
  "key": {"Fos": {"test_system": "Fos", "settings": "aged rats, literature [34]"}, "[1]": {"test_system": "brains of ovariectomized female rats", "settings": "literature [33]"}, "mice": {"test_system": "mice", "settings": "literature [16-20]"}},
  "data": [
    {"compound": "CC(C)=CCC[C@](C)(O[C@@H]1O[C@H](CO)[C@@H](O)[C@H](O)[C@H]1O)[C@H]1CC[C@]2(C)[C@@H]1[C@H](O)C[C@@H]1[C@@]3(C)CC[C@H](O)C(C)(C)[C@@H]3[C@@H](O[C@@H]3O[C@H](CO)[C@@H](O)[C@H](O)[C@H]3O)C[C@]12C", "note": "[ginsenoside Rg1]", "values": [
      {"measurement": "age-related decline of Fos in the hippocampi", "setting": "Fos", "result": "attenuated"}
    ]},
    {"compound": "O=c1c(O)c(-c2ccc(O)c(O)c2)oc2cc(O)cc(O)c12", "note": "[quercetin]", "values": [
      {"measurement": "rate of protein synthesis in brains", "setting": "[1]", "result": "up-regulated"}
    ]},
    {"compound": "Oc1ccc(C=Cc2cc(O)cc(O)c2)cc1", "note": "[resveratrol]", "values": [
      {"measurement": "performance of mice on rotarods", "setting": "mice", "result": "improve"}
    ]}
  ]
}
